For 2 compounds, GI50 and TGI results are on record in PubChem BioAssay (NCI).

Among the test systems are A498 renal; ACHN renal; COLO 205 colon; DU-145 prostate; HCT-116 colon; HL-60(TB) leukemia; MALME-3M melanoma; RXF 393 renal; SK-MEL-28 melanoma; TK-10 renal.
Common to all, as to test: inhibition of tumour cell growth, NCI panel, 48 h

Several values for one entry are separate records, joined by “and”; a condition that tells them apart may be missing. Equal values may be shown once.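 Values below derive from 48-hour exposures of cells grown in 96-well plates, with endpoints linearly interpolated between the two concentrations bracketing the appropriate inhibition level. Abbreviation: GI50, concentration required for 50% inhibition of growth. TGI marks complete inhibition of growth.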

Regarding `Nc1ccn(C2OC(CO)C(O)C2O)c(=O)n1` (centres undefined), the GI50 in the assay on A498 renal is 12 µM and 4.38 µM and 20.8 µM; in the assay with ACHN renal it was 195 nM and 532 nM; in the assay with DU-145 prostate it was 536 nM; with HCT-116 colon it was 142 nM; in the assay with HL-60(TB) leukemia it was 493 nM; with MALME-3M melanoma it was 74.1 nM. In addition, the GI50 in the assay on RXF 393 renal is 13.6 µM. Further, the TGI with A498 renal is > 100 µM and 424 µM; with ACHN renal it was > 100 µM and > 35 µM and 151 µM; with COLO 205 colon it was greater than 500 µM; in the assay on HCT-116 colon, greater than 500 µM; with RXF 393 renal it was greater than 500 µM; in the assay on SK-MEL-28 melanoma, greater than 500 µM. In the assay with TK-10 renal, this compound gave a TGI greater than 500 µM.

For the compound `CC1(C)N=C(N)N=C(N)N1c1ccc(CCCCc2ccc(Cl)c(S(=O)(=O)F)c2)c(Cl)c1`, the GI50 in the assay with A498 renal was 5.56 µM; in the assay with ACHN renal, 6560 nM; in the assay on COLO 205 colon, 1710 nM; with DU-145 prostate it was 769 nM; in the assay with HCT-116 colon, 310 nM; in the assay with HL-60(TB) leukemia it was 380 nM. For the same compound, the GI50 in the assay with MALME-3M melanoma was 2360 nM; in the assay on RXF 393 renal, 5.93 µM; in the assay with SK-MEL-28 melanoma it was 1960 nM; in the assay with TK-10 renal it was 12.3 µM. In addition, the TGI in the assay with A498 renal is 25.7 µM; with ACHN renal, 21.1 µM; in the assay on COLO 205 colon, 7.98 µM; in the assay with DU-145 prostate, 16.5 µM; in the assay on HCT-116 colon, greater than 39.1 µM; in the assay with HL-60(TB) leukemia, 4.1 µM. Moreover, the TGI is 12.5 µM with MALME-3M melanoma, 27.8 µM in the assay on RXF 393 renal, 16.5 µM in the assay on SK-MEL-28 melanoma and 48.8 µM in the assay on TK-10 renal.
